Test results reported in the NIST ThermoML archive (doi:10.1016/j.jct.2015.12.031).

Tests used:
[1] = mn = molality of the nth substance listed, in mol/kg; details: 303.15 K, 86.5 kPa, Liquid; for speed of sound: Frequency=3 MHz, Sing-around technique in a fixed-path interferometer; for mass density: Vibrating tube method
[2] = refractive index (Na D-line) (dimensionless); mn = molality of the nth substance listed, in mol/kg; details: 86.5 kPa, Liquid, Standard Abbe refractometry

CCCCCCn1cc[n+](C)c1.[Br-] [3-hexyl-1-methyl-1H-imidazolium bromide] + c1ccsc1
[1]
Details	mass density [kg/m3]	speed of sound [m/s]
m2 = 0	1220.35	1568.7
m2 = 0.0186	1219.67	1568.1
m2 = 0.0221	1219.55	1568
m2 = 0.0358	1219.09	1567.6
m2 = 0.0433	1218.84	1567.4
m2 = 0.0632	1218.25	1566.8
m2 = 0.0727	1217.98	1566.6
m2 = 0.0952	1217.4	1566
m2 = 0.1142	1216.96	1565.5
m2 = 0.137	1216.51	1564.9
m2 = 0.1603	1216.07	1564.5
m2 = 0.1869	1215.66	1564

refractive index, [2]
Details	288.15 K	293.15 K	298.15 K	303.15 K
m2 = 0	1.5282	1.5268	1.5254	1.5237
m2 = 0.0186	1.5277	1.5261	1.5247	1.5227
m2 = 0.0221	1.5276	1.526	1.5246	1.5226
m2 = 0.0358	1.5273	1.5257	1.5242	1.5223
m2 = 0.0433	1.5271	1.5255	1.5239	1.5221
m2 = 0.0632	1.5266	1.5251	1.5233	1.5217
m2 = 0.0727	1.5264	1.5249	1.523	1.5215
m2 = 0.0952	1.5259	1.5244	1.5224	1.5211
m2 = 0.1142	1.5255	1.524	1.5219	1.5207
m2 = 0.137	1.5251	1.5234	1.5213	1.5202
m2 = 0.1603	1.5247	1.5228	1.5208	1.5197
m2 = 0.1869	1.5242	1.5223	1.5201	1.5191
